How the values were obtained:
[1] = tested on: chronically instrumented rats; experiment: Twelve-hour i.v. infusion with servo-controlled volume replacement (acute tachyphylaxis); assay type: in vivo, rat
Method: To evaluate whether acute tachyphylaxis develops during i.v. treatment with Compound 1, an additional series of experiments were performed. Chronically instrumented rats were infused with vehicle (150 mM glucose) or Compound 1 (1 nmol/kg/min) for twelve hours while water balance was maintained using a computer-driven, servo-controlled i.v. volume replacement system^[2]. Acute tachyphylaxis has been observed during repeated i.v. dosing of the vasopressin antagonist SKF 101926 in conscious dogs^[12] and tolerance during chronic treatment has been reported for the selective V2-receptor antagonist OPC-31260 ^[13].

[2] = tested on: opioid (non-selective opiate, δ, κ, μ), vasopressin (V1a, V1b, V2) and 40 other receptor, uptake and ion channel binding sites; experiment: Receptor, uptake and ion channel binding panel; conditions: 0.1, 10 and 1000 nM (opioid, vasopressin); 10 μM (other sites)
Method: In addition, Compound 1 has been tested in 5 opioid (non-selective opiate, δ, κ, μ, &ORL1), 3 vasopressin (V1a, V1b and V2) receptor binding assays at 0.1, 10, and 1000 nM as well as in 40 different receptor, uptake, and ion channel binding sites (A1, A2, α1, α2, β1, NE uptake, AT1, BZD, B2 (h), CCKA (˜CCK1), D1, D2, ETA(h), GABA, NMDA, H1, M, NK1(h), Y, N, opiate, PCP, 5-HT, 5-HT1B, 5-HT2A, 5-HT uptake, σ, V1) at 10 μM.

## Ac-RYYRWKKKKKKK-NH2 [Compound 1, Ac-RYYRWKKKKKKK-NH2]
[1]; i.v. infusion 1 nmol/kg/min
  tubular water reabsorption and haemodynamics: inhibited tubular water reabsorption without concomitant changes in arterial blood pressure, heart rate, renal blood flow, glomerular filtration rate or proximal tubular reabsorption
[1]; i.v. infusion 1 nmol/kg/min for twelve hours
  duration of aquaretic response: sustained aquaretic response lasting the entire 12-hour infusion period
[1]; i.v. infusion 1 nmol/kg/min, 12 hours
  acute tachyphylaxis: no acute tachyphylaxis develops within the first 12 hours of treatment
[1]; i.v. infusion 1 nmol/kg/min, FIG. 9
  magnitude of aquaretic response versus OPC-31260: aquaretic response of similar magnitude to the response seen with maximal doses of the selective vasopressin type-2 receptor antagonist OPC-31260
[2]
  binding to other receptors than the ORL1 receptor: none or only weak binding to other receptors than the ORL1 receptor
